In this series the test system is mouse plasma stability, LC-MS/MS, 48 h. In words: Inhibitors of HPGD: Mouse Plasma Stability Profiling. To be noted: at 2 µM; active compounds read high. The text has this:
Human 15-Hydroxyprostaglandin dehydrogenase (HPGD) catalyzes the inactivation of prostaglandin E2, and plays a major role in cancer biology by antagonizing the oncogenic potential of cyclooxygenase type 2 (COX2). Follow-up assays are available, based on absorbance/fluorescence increase of NADH with the substrate 15-OH prostaglandin E2. Please see summary AID for more information on this project. After qHTS, hits were confirmed in follow-up assays, and leads were optimized through SAR. The resulting lead compound was further characterized through a battery ADME-Tox experiments, and this assay describes its stability in mouse plasma. NIH Chemical Genomics Center [NCGC] NIH Molecular Libraries Probe Centers Network [MLPCN] MLPCN Grant: MH084681-02 Assay Submitter (PI): Udo Oppermann, Structural Genomics Consortium
2microM of compound is incubated in mouse plasma, the reference compound is procaine. Compounds are incubated at 37 deg C for the pre-determined time periods and the when aliquots are removed. Samples are analyzed with LC-MS/MS.

Molecules are shown by their SMILES.

On to `Cc1cccc(-n2cnc3cc(C(=O)N4CCCCC4)ccc32)c1`, for which the percent remaining is 98%.

With `Cc1cc(-c2nnc3n2CCCCC3)c(C)n1-c1ccccc1`, the percent remaining is 98%.

Source of the values: PubChem BioAssay AID504844 (National Center for Advancing Translational Sciences (NCATS), 2011).
